Source: patent US9630943B2, “Tetrahydronaphthyl(thio) carboxamides” (BAYER CROPSCIENCE AG, priority 2012, dated 2017)

Assay: Measurement of logP values by HPLC on reversed phase columns (EEC directive 79/831 Annex V.A8)
Assay type: physicochemical
Conditions: method [a]

SMILES	LogP^[a]
Cn1cc(C(=O)Nc2cccc3c2CCC(C)(C)C3=O)c(C(F)F)n1 [Example 29]	2.40^[a]
Cn1cc(C(=O)Nc2cccc3c2C(C)(C)CCC3)c(C(F)F)n1 [Example 92]	2.99^[a]
CON=C1CCCc2c(NC(=O)c3cn(C)nc3C(F)F)cccc21 [Example 38]	2.56^[a]
Cn1cc(C(=O)Nc2cccc3c2CCCC3(C)C)c(C(F)F)n1 [Example 60]	3.39^[a]
CON=C1CCCc2c(NC(=O)C3=C(C(F)(F)F)OCCS3)cccc21 [Example 76]	3.21^[a]
CCON=C1CCCc2c(NC(=O)c3sc(C)nc3C(F)F)cccc21 [Example 80]	3.37^[a]
CC1CCc2c(NC(=O)c3cn(C)nc3C(F)F)cccc2C1C (mixture of isomers) [Example 12]	3.37^[a]
Cc1oc(C)c(C(=O)Nc2ccc(F)c3c2CCCC3(C)C)c1C [Example 62]	4.51^[a]
CON=C1CCCc2c(NC(=O)c3c(C)nn(C)c3C)cccc21 [Example 37]	2.17^[a]
CCc1nc(C)sc1C(=O)Nc1cccc2c1CCCC2=NOC [Example 47]	3.02^[a]
CC1CCc2c(NC(=O)c3cn(C)nc3C(F)F)cccc2C1(C)C (racemic) [Example 1]	3.60^[a]
CCON=C1CCCc2c(NC(=O)c3c(C)nn(C)c3C)cccc21 [Example 41]	2.58^[a]
CC1CCC(C)(C)c2cccc(NC(=O)c3cn(C)nc3C(F)F)c21 (racemic) [Example 17]	3.44^[a]
CCc1nc(C)sc1C(=O)Nc1cccc2c1CCC(C)(C)C2 [Example 82]	3.87^[a]
Cc1nc(C(F)F)c(C(=O)Nc2cccc3c2CCC(C)C3C)s1 (mixture of isomers) [Example 35]	3.78^[a]
Cc1nn(C)c(F)c1C(=O)Nc1cccc2c1CCC(C)(C)C2C (racemic) [Example 21]	3.70^[a]
Cc1nc(C(F)F)c(C(=O)Nc2cccc3c2CC(C)(C)CC3)s1 [Example 25]	3.72^[a]
CCON=C1CCCc2c(NC(=O)c3ccoc3C(F)F)cccc21 [Example 79]	3.68^[a]
CC1(C)CCCc2c(NC(=O)c3ccsc3I)ccc(F)c21 [Example 63]	4.29^[a]
CC1c2cccc(NC(=O)c3cn(C)nc3C(F)F)c2CCC1(C)C (racemic) [Example 22]	3.68^[a]
CON=C1CCCc2c(NC(=O)c3c(C)nn(C)c3F)cccc21 [Example 39]	2.47^[a]
CON=C1CCCc2c(NC(=O)c3c(C(F)(F)F)nn(C)c3F)cccc21 [Example 75]	3.11^[a]
CCON=C1CCCc2c(NC(=O)c3cn(C)nc3C(F)F)cccc21 [Example 42]	2.96^[a]
Cc1nc(C(F)F)c(C(=O)Nc2cccc3c2CCC(C)(C)C3=O)s1 [Example 33]	2.73^[a]
C=C1c2cccc(NC(=O)c3c(C)nn(C)c3C)c2CCC1(C)C [Example 6]	3.05^[a]
CCON=C1CCCc2c(NC(=S)c3ccoc3C(F)F)cccc21 [Example 89]	4.11^[a]
C=C1c2cccc(NC(=O)c3sc(C)nc3C(F)F)c2CCC1(C)C [Example 7]	3.87^[a]

SMILES	LogP^[a]
Cc1nc(C(F)F)c(C(=O)Nc2ccc(F)c3c2CCCC3(C)C)s1 [Example 58]	3.79^[a]
CON=C1CCCc2c(NC(=S)c3nccnc3C(F)(F)F)cccc21 [Example 88]	3.39^[a]
CC1(C)CCc2c(cccc2NC(=O)c2ccsc2Br)C1 [Example 66]	4.41^[a]
Cn1cc(C(=O)Nc2cccc3c2CCC(C)(C)C3)c(C(F)F)n1 [Example 43]	3.35^[a]
CON=C1CCCc2c(NC(=O)c3nccnc3I)cccc21 [Example 54]	2.94^[a]
CCON=C1CCCc2c(NC(=O)c3c(C)oc(C)c3C)cccc21 [Example 78]	4.01^[a]
CON=C1CCCc2c(NC(=O)c3ccsc3I)cccc21 [Example 56]	3.37^[a]
CC1CCc2cccc(NC(=O)c3cn(C)nc3C(F)F)c2C1C (mixture of isomers) [Example 15]	3.21^[a]
CC1(C)CCc2c(cccc2NC(=O)c2ccoc2C(F)F)C1 [Example 64]	4.06^[a]
Cc1nn(C)c(F)c1C(=O)Nc1cccc2c1CCC(C)(C)C2=O [Example 30]	2.28^[a]
CON=C1CCCc2c(NC(=S)c3ccoc3C(F)F)cccc21 [Example 83]	3.70^[a]
C=C1c2cccc(NC(=O)c3c(C)nn(C)c3F)c2CCC1(C)C [Example 9]	3.48^[a]
Cc1nn(C)c(F)c1C(=O)Nc1cccc2c1CCCC2(C)C [Example 61]	3.35^[a]
CON=C1CCCc2c(NC(=O)c3c(C)oc(C)c3C)cccc21 [Example 71]	3.55^[a]
CON=C1CCCc2c(NC(=O)c3nccnc3C(F)(F)F)cccc21 [Example 55]	3.08^[a]
Cn1cc(C(=O)Nc2cccc3c2CC(C)(C)CC3)c(C(F)F)n1 [Example 5]	3.25^[a]
CCON=C1CCCc2c(NC(=O)c3ccsc3I)cccc21 [Example 84]	3.83^[a]
Cc1nn(C)c(C)c1C(=O)Nc1ccc(F)c2c1CCCC2(C)C [Example 90]	2.98^[a]
CC1(C)CCc2c(cccc2NC(=O)c2ccsc2I)C1 [Example 87]	4.34^[a]
CCc1nc(C)sc1C(=O)Nc1ccc(F)c2c1CCCC2(C)C [Example 59]	3.85^[a]
Cn1cc(C(=O)Nc2cccc3c2CCCC3)c(C(F)(F)F)n1 [Example 28]	2.92^[a]
CC1(C)CCc2c(cccc2NC(=O)C2=C(C(F)(F)F)OCCS2)C1 [Example 69]	3.99^[a]
CCc1nc(C)sc1C(=O)Nc1cccc2c1CCC(C)(C)C2=O [Example 32]	2.71^[a]
Cc1oc(C)c(C(=O)Nc2cccc3c2CCC(C)(C)C3)c1C [Example 65]	4.59^[a]
CC1(C)CCc2c(cccc2NC(=O)c2nccnc2C(F)(F)F)C1 [Example 68]	3.99^[a]
CCON=C1CCCc2c(NC(=O)c3c(C(F)(F)F)nn(C)c3F)cccc21 [Example 73]	3.57^[a]
Cc1nn(C)c(C)c1C(=O)Nc1cccc2c1CC(C)(C)CC2 [Example 23]	2.90^[a]

SMILES	LogP^[a]
CON=C1CCCc2c(NC(=O)c3sc(C)nc3C(F)F)cccc21 [Example 48]	2.92^[a]
C=C1c2cccc(NC(=O)c3sc(C)nc3CC)c2CCC1(C)C [Example 8]	3.99^[a]
CON=C1CCCc2c(NC(=O)c3ccoc3C(F)F)cccc21 [Example 53]	3.25^[a]
CCc1nc(C)sc1C(=O)Nc1cccc2c1CC(C)(C)CC2 [Example 24]	3.79^[a]
Cc1nn(C)c(C)c1C(=O)Nc1cccc2c1CCC(C)C2C (mixture of isomers) [Example 11]	3.00^[a]
CCc1nc(C)sc1C(=O)Nc1cccc2c1CCC(C)C2C (mixture of isomers) [Example 36]	3.87^[a]
Cn1cc(C(=O)Nc2cccc3c2CCCC3(C)C)c(C(F)F)n1 [Example 4]	3.26^[a]
CC1(C)CCc2c(cccc2NC(=O)c2nccnc2I)C1 [Example 67]	4.01^[a]
Cn1nc(C(F)(F)F)c(C(=O)Nc2cccc3c2CCC(C)(C)C3)c1F [Example 86]	3.99^[a]
CCON=C1CCCc2c(NC(=O)C3=C(C(F)(F)F)OCCS3)cccc21 [Example 74]	3.63^[a]
CCc1nc(C)sc1C(=O)Nc1cccc2c1CCC(C)(C)C2C (racemic) [Example 19]	4.19^[a]
CCON=C1CCCc2c(NC(=O)c3nccnc3C(F)(F)F)cccc21 [Example 72]	3.55^[a]
Cn1cc(C(=S)Nc2ccc(F)c3c2CCCC3(C)C)c(C(F)F)n1 [Example 85]	3.87^[a]
CCON=C1CCCc2c(NC(=O)c3ccsc3Br)cccc21 [Example 77]	3.87^[a]
CC1(C)CCCc2c(NC(=O)C3=C(C(F)(F)F)OCCS3)ccc(F)c21 [Example 57]	4.01^[a]
Cc1nc(C(F)F)c(C(=O)Nc2cccc3c2CCC(C)(C)C3)s1 [Example 46]	3.81^[a]
Cn1cc(C(=O)Nc2cccc3c2CCCC3)c(C(F)F)n1 [Example 27]	2.68^[a]
Cc1nn(C)c(C)c1C(=O)Nc1cccc2c1CCC(C)(C)C2 [Example 45]	2.94^[a]
Cc1nn(C)c(C)c1C(=O)Nc1cccc2c1CCC(C)(C)C2=O [Example 31]	2.04^[a]
CC1c2c(cccc2NC(=O)c2cn(C)nc2C(F)F)CCC1(C)C (stereo not drawn) [Example 34]	3.51^[a]
CC1(C)CCCc2c(NC(=O)c3nccnc3I)ccc(F)c21 [Example 50]	3.92^[a]
CCON=C1CCCc2c(NC(=O)c3nccnc3I)cccc21 [Example 70]	3.44^[a]
CCON=C1CCCc2c(NC(=S)c3nccnc3C(F)(F)F)cccc21 [Example 91]	3.83^[a]
C=C1c2cccc(NC(=O)c3cn(C)nc3C(F)F)c2CCC1(C)C [Example 10]	3.48^[a]
CCON=C1CCCc2c(NC(=O)c3c(C)nn(C)c3F)cccc21 [Example 40]	2.86^[a]
CON=C1CCCc2c(NC(=O)c3ccsc3Br)cccc21 [Example 49]	3.37^[a]

Same assay, conditions: method [a], HPLC on reversed phase columns

SMILES	LogP[a]
CC(C)C1CCCc2c(NC(=O)c3cn(C)nc3C(F)(F)F)cccc21 (stereo not drawn) [Example 99]	3.96^[a]

Same assay, conditions: pH 2.7

SMILES	chromatographic logP
Cc1nn(C)c(F)c1C(=O)Nc1cccc2c1CCCC2(C)C [Example 2, N-(5,5-dimethyl-5,6,7,8-tetrahydronaphthalen-1-yl)-5-fluoro-1,3-dimethyl-1H-pyrazole-4-carboxamide]	3.23
C=C1c2c(cccc2NC(=O)c2cn(C)nc2C(F)F)CCC1(C)C [Example 16, 3-(difluoromethyl)-N-(7,7-dimethyl-8-methylene-5,6,7,8-tetrahydronaphthalen-1-yl)-1-methyl-1H-pyrazole-4-carboxamide]	2.31

Same assay, conditions: reversed phase HPLC columns; method [a]: LC-MS at pH 2.7, 0,1% formic acid in water / acetonitrile, gradient 10% to 95% acetonitrile; amines of formula (III-a); read-out: LogP^[a]

SMILES	chromatographic logP
CC1(C)CCc2c(N)cccc2C1 [III-a-3, 6,6-dimethyl-5,6,7,8-tetrahydronaphthalen-1-amine]	1.88
